Reference: the NIST ThermoML archive (doi:10.1016/j.jct.2019.06.032)

What was measured:
[1] = xn = mol fraction of the nth substance listed; conditions: 101 kPa, Liquid; for viscosity: Capillary tube (Ostwald / Ubbelohde) method; for mass density: Vibrating tube method
[2] = 101 kPa, Liquid; for viscosity: Capillary tube (Ostwald / Ubbelohde) method; for mass density: Vibrating tube method

O [water] + NCCO
[1], x2 = 0
Conditions	mass density [kg/m3]	viscosity [mPa·s]
293.15 K	–	1.004
303.15 K	–	0.813
313.15 K	992.3	0.662
323.15 K	–	0.57
333.15 K	983.3	0.483

NCCO [2-aminoethan-1-ol] + CCN(CC)CCO
[1], x1 = 1
Conditions	mass density [kg/m3]	viscosity [mPa·s]
293.15 K	1016.9	23.79
303.15 K	1009.5	14.83
313.15 K	1001.1	9.89
323.15 K	992.7	6.872
333.15 K	984.3	4.99

CCN(CC)CCO [(diethylamino)ethanol]
[2]
Conditions	mass density [kg/m3]	viscosity [mPa·s]
293.15 K	891.2	4.848
303.15 K	874.4	3.41
313.15 K	865.4	2.466
323.15 K	856.4	1.855
333.15 K	845.6	1.431

NCCO [2-aminoethan-1-ol]
[2]
Conditions	mass density [kg/m3]	viscosity [mPa·s]
293.15 K	1016.9	23.79
303.15 K	1009.5	14.83
313.15 K	1001.1	9.89
323.15 K	992.7	6.872
333.15 K	984.3	4.99

O [water] + CCN(CC)CCO
[1], x2 = 0
Conditions	mass density [kg/m3]	viscosity [mPa·s]
293.15 K	–	1.004
303.15 K	–	0.813
313.15 K	992.3	0.662
323.15 K	–	0.57
333.15 K	983.3	0.483
